Drawing on patent US8012998B2, “Pyrrolidine aryl-ether as NK-3 receptor antagonists” (Hoffmann—LA Roche Inc., priority 2007, dated 2011), this text covers Ki for 21 molecules.

The assay has as its target T1, human NK3 receptor (Homo sapiens, UniProt P29371).
T1 construct: expressed in transfected cells; host or cells: HEK293 cells (transient expression), membrane preparation
T1 sequence (P29371 1-465): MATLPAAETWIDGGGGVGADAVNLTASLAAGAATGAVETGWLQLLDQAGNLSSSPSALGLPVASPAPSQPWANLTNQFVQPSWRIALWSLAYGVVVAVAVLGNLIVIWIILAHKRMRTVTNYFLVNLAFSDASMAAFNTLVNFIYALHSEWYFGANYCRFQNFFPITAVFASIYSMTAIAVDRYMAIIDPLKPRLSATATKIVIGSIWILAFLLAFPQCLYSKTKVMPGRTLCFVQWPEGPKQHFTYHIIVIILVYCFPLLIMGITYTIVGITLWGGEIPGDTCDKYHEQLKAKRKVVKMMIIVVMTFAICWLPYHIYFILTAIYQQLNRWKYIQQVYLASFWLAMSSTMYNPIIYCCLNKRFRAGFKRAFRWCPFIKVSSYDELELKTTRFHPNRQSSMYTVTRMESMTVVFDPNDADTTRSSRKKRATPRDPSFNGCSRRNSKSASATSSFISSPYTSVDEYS
The assay is described as follows: [3H]SR142801 competition binding assay (hNK3 receptor binding). The settings on record: [3H]SR142801 radioligand; membranes from HEK293 cells transiently expressing recombinant human NK3 receptor; Ki by Cheng-Prussoff; read-out: KiNK3 h. As for the experimental part: [^3H]SR^142801 Competition Binding Assay
hNK3 receptor binding experiment were performed using [^3H]SR^142801 (Catalog No. TRK1035, specific activity: 74.0 Ci/mmol, Amersham, GE Healthcare UK limited, Buckinghamshire, UK) and membrane isolated from HEK293 cells transiently expressing recombinant human NK3 receptor. After thawing, the membrane homogenates were centrifuged at 48,000×g for 10 min at 4° C., the pellets were resuspended in the 50 mM Tris-HCl, 4 mM MnCl2, 1 μM phosphoramidon, 0.1% BSA binding buffer at pH 7.4 to a final assay concentration of 5 μg protein/well. […] At the end of the incubation, membranes were filtered onto unitfilter (96-well white microplate with bonded GF/C filter preincubated 1 h in 0.3% PEI +0.3% BSA, Packard BioScience, Meriden, Conn.) with a Filtermate 196 harvester (Packard BioScience) and washed 4 times with ice-cold 50 mM Tris-HCl, pH 7.4 buffer. Nonspecific binding was measured in the presence of 10 μM SB222200 for both radioligands. The radioactivity on the filter was counted (5 min) on a Packard Top-count microplate scintillation counter with quenching correction after addition of 45 μl of microscint 40 (Canberra Packard S.A., Zutrich, Switzerland) and shaking for 1 h. Inhibition curves were fitted according to the Hill equation: y=100/(1+(x/IC50)^nH), where nH=slope factor using Excel-fit 4 software (Microsoft). IC50 values were derived from the inhibition curve and the affinity constant (Ki) values were calculated using the Cheng-Prussoff equation Ki=IC50/(1+[L]/KD) where [L] is the concentration of radioligand and KD is its dissociation constant at the receptor, derived from the saturation isotherm. All experiments were performed in duplicate and the mean ± standard error (SEM) of the individual Ki values was calculated.
As to `C[C@@H](Oc1ccc(C(F)(F)F)cc1)[C@@H]1CN(C(=O)c2ccc(C#N)cc2)C[C@H]1c1ccc(Cl)c(Cl)c1` (racemic) [Example 2, 4-{(3RS,4SR)-3-(3,4-Dichloro-phenyl)-4-[(RS)-1-(4-trifluoromethyl-phenoxy)-ethyl]-pyrrolidine-1-carbonyl}-benzonitrile], the Ki is 35.5 nM.
Next, `Cc1ccc(C(=O)N2C[C@@H]([C@@H](C)Oc3ccc(C(F)(F)F)cc3)[C@H](c3ccc(Cl)c(Cl)c3)C2)cn1` (racemic) [Example 6, {(3RS,4SR)-3-(3,4-Dichloro-phenyl)-4-[(RS)-1-(4-trifluoromethyl-phenoxy)-ethyl]-pyrrolidin-1-yl}-(6-methyl-pyridin-3-yl)-methanone]: 63.6 nM; `COc1ccc(C(=O)N2C[C@@H]([C@@H](C)Oc3ccc(C(F)(F)F)cc3)[C@H](c3ccc(Cl)c(Cl)c3)C2)cn1` (racemic) [Example 9, {(3RS,4SR)-3-(3,4-Dichloro-phenyl)-4-[(RS)-1-(4-trifluoromethyl-phenoxy)-ethyl]-pyrrolidin-1-yl}-(6-methoxy-pyridin-3-yl)-methanone]: 79.8 nM.
Regarding `C[C@@H](Oc1ccc(Cl)cn1)[C@@H]1CN(C(=O)c2ccc(C#N)cc2)C[C@H]1c1ccc(Cl)c(Cl)c1` (racemic) [Example 10, 4-[(3SR,4RS)-3-[(RS)-1-(5-Chloro-pyridin-2-yloxy)-ethyl]-4-(3,4-dichloro-phenyl)-pyrrolidine-1-carbonyl]-benzonitrile], the Ki worked out at 3.2 nM.
Next, `COc1ccc(C(=O)N2C[C@@H]([C@@H](C)Oc3ccc(Cl)cn3)[C@H](c3ccc(Cl)c(Cl)c3)C2)cn1` (racemic) [Example 11, [(3SR,4RS)-3-[(RS)-1-(5-Chloro-pyridin-2-yloxy)-ethyl]-4-(3,4-dichloro-phenyl)-pyrrolidin-1-yl]-(6-methoxy-pyridin-3-yl)-methanone]: 11.8 nM; `COc1ncc(C(=O)N2C[C@@H]([C@@H](C)Oc3ccc(Cl)cn3)[C@H](c3ccc(Cl)c(Cl)c3)C2)cn1` (racemic) [Example 12, [(3SR,4RS)-3-[(RS)-1-(5-Chloro-pyridin-2-yloxy)-ethyl]-4-(3,4-dichloro-phenyl)-pyrrolidin-1-yl]-(2-methoxy-pyrimidin-5-yl)-methanone]: 19.4 nM; `C[C@@H](Oc1ccc(Cl)cn1)[C@@H]1CN(C(=O)c2ccc(N(C)C)cc2)C[C@H]1c1ccc(Cl)c(Cl)c1` (racemic) [Example 13, [(3SR,4RS)-3-[(RS)-1-(5-Chloro-pyridin-2-yloxy)-ethyl]-4-(3,4-dichloro-phenyl)-pyrrolidin-1-yl]-(4-dimethylamino-phenyl)-methanone]: 50 nM.
Under `C[C@@H](Oc1ccc(Cl)cn1)[C@@H]1CN(C(=O)c2ccc(F)nc2)C[C@H]1c1ccc(Cl)c(Cl)c1` (racemic) [Example 14, [(3SR,4RS)-3-[(RS)-1-(5-Chloro-pyridin-2-yloxy)-ethyl]-4-(3,4-dichloro-phenyl)-pyrrolidin-1-yl]-(6-fluoro-pyridin-3-yl)-methanone] stands 27.8 nM.
Regarding `Cc1cc(C(=O)N2C[C@@H]([C@@H](C)Oc3ccc(Cl)cn3)[C@H](c3ccc(Cl)c(Cl)c3)C2)ccn1` (racemic) [Example 15, [(3SR,4RS)-3-[(RS)-1-(5-Chloro-pyridin-2-yloxy)-ethyl]-4-(3,4-dichloro-phenyl)-pyrrolidin-1-yl]-(2-methyl-pyridin-4-yl)-methanone], the Ki is 6.3 nM.
Under `Cc1ccc(C(=O)N2C[C@@H]([C@@H](C)Oc3ccc(Cl)cn3)[C@H](c3ccc(Cl)c(Cl)c3)C2)cn1` (racemic) [Example 16, [(3SR,4RS)-3-[(RS)-1-(5-Chloro-pyridin-2-yloxy)-ethyl]-4-(3,4-dichloro-phenyl)-pyrrolidin-1-yl]-(6-methyl-pyridin-3-yl)-methanone] stands 9.2 nM.
With `Cc1ncc(C(=O)N2C[C@@H]([C@@H](C)Oc3ccc(Cl)cn3)[C@H](c3ccc(Cl)c(Cl)c3)C2)cn1` (racemic) [Example 17, [(3SR,4RS)-3-[(RS)-1-(5-Chloro-pyridin-2-yloxy)-ethyl]-4-(3,4-dichloro-phenyl)-pyrrolidin-1-yl]-(2-methyl-pyrimidin-5-yl)-methanone], the Ki came to 11.8 nM.
Next, `COc1cc(C(=O)N2C[C@@H]([C@@H](C)Oc3ccc(Cl)cn3)[C@H](c3ccc(Cl)c(Cl)c3)C2)ccn1` (racemic) [Example 18, [(3SR,4RS)-3-[(RS)-1-(5-Chloro-pyridin-2-yloxy)-ethyl]-4-(3,4-dichloro-phenyl)-pyrrolidin-1-yl]-(2-methoxy-pyridin-4-yl)-methanone]: 22.7 nM.
Next, `C[C@@H](Oc1ccc(Cl)cn1)[C@@H]1CN(C(=O)c2ccc(N(C)C)nc2)C[C@H]1c1ccc(Cl)c(Cl)c1` (racemic) [Example 19, [(3SR,4RS)-3-[(RS)-1-(5-Chloro-pyridin-2-yloxy)-ethyl]-4-(3,4-dichloro-phenyl)-pyrrolidin-1-yl]-(6-dimethylamino-pyridin-3-yl)-methanone]: 5.8 nM; `C[C@@H](Oc1ccc(Cl)cn1)[C@@H]1CN(C(=O)c2ccc(N)nc2)C[C@H]1c1ccc(Cl)c(Cl)c1` (racemic) [Example 20, (6-Amino-pyridin-3-yl)-[(3SR,4RS)-3-[(RS)-1-(5-chloro-pyridin-2-yloxy)-ethyl]-4-(3,4-dichloro-phenyl)-pyrrolidin-1-yl]-methanone]: 17 nM.
Under `COc1ccc(C(=O)N2C[C@@H]([C@@H](C)Oc3ncc(F)cn3)[C@H](c3ccc(Cl)c(Cl)c3)C2)cn1` (racemic) [Example 25, {(3RS,4SR)-3-(3,4-Dichloro-phenyl)-4-[(RS)-1-(5-fluoro-pyrimidin-2-yloxy)-ethyl]-pyrrolidin-1-yl}-(6-methoxy-pyridin-3-yl)-methanone] stands 63.3 nM.
Take `COc1ccc(C(=O)N2C[C@@H]([C@@H](C)Oc3ccc(F)cn3)[C@H](c3ccc(Cl)c(Cl)c3)C2)cn1` (racemic) [Example 26, {(3RS,4SR)-3-(3,4-Dichloro-phenyl)-4-[(RS)-1-(5-fluoro-pyridin-2-yloxy)-ethyl]-pyrrolidin-1-yl}-(6-methoxy-pyridin-3-yl)-methanone]: the Ki was found to be 66 nM.
Under `Cc1cc(C(=O)N2C[C@@H]([C@@H](C)Oc3ccc(Cl)cn3)[C@H](c3ccc(Cl)c(Cl)c3)C2)c(C)o1` (racemic) [Example 28, [(3SR,4RS)-3-[(RS)-1-(5-Chloro-pyridin-2-yloxy)-ethyl]-4-(3,4-dichloro-phenyl)-pyrrolidin-1-yl]-(2,5-dimethyl-furan-3-yl)-methanone] stands 59 nM.
Next, `C[C@@H](Oc1ccc(Cl)cn1)[C@@H]1CN(C(=O)c2ccc(CC#N)o2)C[C@H]1c1ccc(Cl)c(Cl)c1` (racemic) [Example 30, {5-[(3SR,4RS)-3-[(RS)-1-(5-Chloro-pyridin-2-yloxy)-ethyl]-4-(3,4-dichloro-phenyl)-pyrrolidine-1-carbonyl]-furan-2-yl}-acetonitrile]: 80 nM; `Cc1cc(C(=O)N2C[C@@H]([C@@H](C)Oc3ccc(Cl)cn3)[C@H](c3ccc(Cl)c(Cl)c3)C2)c(C)n1C1CC1` (racemic) [Example 31, [(3SR,4RS)-3-[(RS)-1-(5-Chloro-pyridin-2-yloxy)-ethyl]-4-(3,4-dichloro-phenyl)-pyrrolidin-1-yl]-(1-cyclopropyl-2,5-dimethyl-1H-pyrrol-3-yl)-methanone]: 5 nM; `COc1ccc(C(=O)N2C[C@@H]([C@@H](C)Oc3ccc(C#N)cn3)[C@H](c3ccc(Cl)c(Cl)c3)C2)cn1` (racemic) [Example 34, 6-{(RS)-1-[(3SR,4RS)-4-(3,4-Dichloro-phenyl)-1-(6-methoxy-pyridine-3-carbonyl)-pyrrolidin-3-yl]-ethoxy}-nicotinonitrile]: 47 nM.
As for `C[C@@H](Oc1ccc(Cl)cn1)[C@@H]1CN(C(=O)c2ccc(C#N)nc2)C[C@H]1c1ccc(Cl)c(Cl)c1` (racemic) [Example 35, 5-[(3SR,4RS)-3-[(RS)-1-(5-Chloro-pyridin-2-yloxy)-ethyl]-4-(3,4-dichloro-phenyl)-pyrrolidine-1-carbonyl]-pyridine-2-carbonitrile], the Ki was 2 nM.
